Measurements as given in patent publication US20210214303A1, “SCORPION VENOM BENZOQUINONE DERIVATIVES AND USES THEREOF” (priority 2018, published 2021).
In brackets after ≈: the same amount, converted by molar mass. Entries after “also recorded” stand apart in the source; their conditions may differ.

Legend:
Staphylococcus aureus [1] = assay: disk-diffusion assay; assay type: cell-based
Procedure: Ampicillin (5 μg) was used as a positive control.
(§1) This difference was confirmed using a broth microdilution assay (FIG. 3D). The minimum inhibitory concentration (MIC) for S. aureus growth was 4 μg/mL for the red 1,4 benzoquinone and 6 μg/mL for the blue 1,4 benzoquinone (FIG. 3D, Table 1). Ampicillin (MIC=0.5 μg/mL) was used as a positive control (ESCMID Eo (2003) Clin. Microbiol. Infect. 9: ix-xv; Pieterse et al., (2010) Brazil. J. Microbiol. 41: 133-145). These compounds were bactericidal at their MICs, killing 90% of S. aureus in 6 h and 99.9% in 24 h (Table 2).

Staphylococcus aureus [2] = assay: broth microdilution assay (MIC); assay type: cell-based; details: S. aureus, read-out: minimum inhibitory concentration (MIC)
Procedure: FIG. 3D illustrates the determination of the minimal inhibitory concentrations (MICs) of the red and blue 1,4 benzoquinones against Staphylococcus aureus. The MICs determined by the broth microdilution assay are 4 μg/mL for the red 1,4 benzoquinone and 6 μg/mL for the blue 1,4 benzoquinone. Ampicillin was used as a positive control. Each result is reported as the mean±SD.
as §1

[3] = system: Staphylococcus aureus ATCC 29213; assay: Minimum inhibitory concentration, Table 1, strain ATCC 29213; assay type: cell-based; details: for sensitive/resistant (growth): ATCC 29213; for MIC: ATCC29213, Staphylococcus aureus ATCC 29213; for sensitive/resistant (growth): key: S Sensitive (did not grow the crop); R resistant (bacterial growth)
Staphylococcus aureus [4] = assay: Time-kill assay; assay type: cell-based; details: for killing of S. aureus: at their MICs
E. coli = assay: activity against gram negative E. coli; assay type: cell-based
Candida. albicans = assay: activity against pathogenic fungus; assay type: cell-based
[5] = system: A549 (adenocarcinomic lung epithelial cells); assay: cytotoxicity assay, LDH release; assay type: cell-based, human; details: 1, 5, and 25 μM, 12 hours
Procedure: (§2) Cytotoxicity to PBMCs and to Neoplastic Cells: The cytotoxicity of the 1,4 benzoquinones of the disclosure was tested with peripheral blood mononuclear cells (PBMCs) and various human neoplastic cell lines: A549 (adenocarcinomic lung epithelial cells), Jurkat (T cell leukemia), TE 671 (rhabdomyosarcoma cells) and SH-SY5Y (bone marrow neuroblastoma cells).
(§3) PBMCs were obtained from healthy blood donors and isolated by Ficoll-Paque PLUS density gradient centrifugation and resuspended in RPMI-1640 medium supplemented with 10% fetal calf serum. Cells were incubated at 37° C. in 5% CO2 overnight and non-adherent cells were recovered and used for subsequent experiments. The neoplastic cell lines were cultured according to the ATCC guidelines.
(§4) For cytotoxicity assays, cells were resuspended in DMEM without phenol red, supplemented with 2% heat-inactivated fetal calf serum. Cells were plated in 96-well polystyrene cell culture plates (2×10^4 to 2×10^5 cells/well depending on the cell type) and incubated at 37° C. in 5% CO2 for 8 hours to promote cell adhesion to the well's surface. The red and blue 1,4 benzoquinones were administered to achieve final concentrations of 1, 5, and 25 μM. Cells were then incubated at 37° C. in 5% CO2 for 12 hours. Following the incubation period, plates were centrifuged at 300×g for 10 minutes and supernatants were harvested to evaluate cell viability with the CytoTox 96@ Non-Radioactive Cytotoxicity Assay (Promega). This assay quantitatively measures lactate dehydrogenase (LDH), a stable cytosolic enzyme that is released upon cell lysis. The released LDH in the culture supernatants was measured with a colorimetric coupled enzymatic assay according to the manufacturer's instructions.

Jurkat (T cell leukemia) = assay: cytotoxicity assay, LDH release; assay type: cell-based, human; details: 1, 5, and 25 μM, 12 hours
Procedure: as §2, §3, §4

[6] = system: SH-SY5Y (bone marrow neuroblastoma cells); assay: cytotoxicity assay, LDH release; assay type: cell-based, human; details: 1, 5, and 25 μM, 12 hours
Procedure: as §2, §3, §4

[7] = system: TE 671 (rhabdomyosarcoma cells); assay: cytotoxicity assay, LDH release; assay type: cell-based, human; details: 1, 5, and 25 μM, 12 hours
Procedure: as §2, §3, §4

fresh human erythrocytes = assay: Hemolysis assay; assay type: cell-based; details: 2 hours, all concentrations tested (even higher than 100 μg/mL)
Procedure: FIG. 14A illustrates a cytotoxic activity assay of the red and blue 1,4 benzoquinones. Hemolysis was evaluated using fresh human erythrocytes. Lysis was evaluated by the absorbance of the supernatant at 415 nm after 2 hours of incubation with different concentrations of the 1,4 benzoquinones. Triton X-100 was used as positive control.
Hemolysis assay: The hemolytic activity was evaluated for both of the 1,4 benzoquinones using fresh human erythrocytes. Fresh human erythrocytes were washed four times with phosphate buffered saline (PBS) and incubated for 2 h at 37° C. with different concentration of the 1,4 benzoquinones. A gradient of Triton X-100 was used as positive control of hemolysis. After incubation, the erythrocytes suspension was centrifuged at 400×g for 10 min and supernatant was recovered. Hemolysis was determined by the absorbance of the supernatant at 415 nm.

TE671 muscle cells = assay: detection of intracellular reactive oxygen species with DCFH-DA; assay type: cell-based; details: 25 μM, 6 hours
Procedure: FIG. 16A illustrates the detection of intracellular reactive oxygen species (ROS) using the oxidant-sensing probe dichloro-dihydro-fluorescein diacetate (DCFH-DA). TE671 muscle cells were used. Cells were cultured according to the ATCC guidelines. Before treatment, cells were incubated for one hour with a 10 μM solution of DCFH-DA. After the cells were washed 3×PBS, either the red or blue 1,4 benzoquinone was administered at a concentration of 25 μM. Cells were then incubated at 37° C. in 5% CO2 for 6 hours. Following the incubation period, cells were harvested and evaluated with a Zeiss Axioskop fluorescence microscope using a 485-nm excitation and 530-nm emission filter combination. […] Treatment with hydrogen peroxide (50 μM) was used as positive control.

Jurkat cells = assay: Annexin V / viability dye flow cytometry apoptosis assay; assay type: cell-based; details: 25 μM; 0, 4, 8 and 12 h
Procedure: In this assay, Jurkat cells were incubated with either the red or blue 1,4 benzoquinone at a concentration of 25 μM for 0, 4, 8 and 12 h. Cells were then stained with the Fixable Viability Dye eFluor 780 and FITC Annexin V and analyzed using flow cytometry. Positive staining with Annexin V is a marker of early apoptosis, and positive staining with both Annexin V and the viability dye is a marker of late apoptosis/necrosis. Double negatives are live cells. Cells were grouped into three categories (live, early apoptotic, and late apoptotic/necrotic). Data from three independent experiments are shown as mean±SEM (standard error of mean).

Row | SMILES | inhibition of S. aureus growth (Staphylococcus aureus [1]) | MIC (Staphylococcus aureus [2]) | sensitive/resistant (growth) ([3]; 0.5 μg/ml) | sensitive/resistant (growth) ([3]; 1 μg/ml) | sensitive/resistant (growth) ([3]; 2 μg/ml) | sensitive/resistant (growth) ([3]; 4 μg/ml) | sensitive/resistant (growth) ([3]; 8 μg/ml) | sensitive/resistant (growth) ([3]; 16 μg/ml) | sensitive/resistant (growth) ([3]; 32 μg/ml) | sensitive/resistant (growth) ([3]; 64 μg/ml) | MIC [3] | Colony-forming Units (CFU) (Staphylococcus aureus [4]; 0 hr incubation, 2 × MIC) | Colony-forming Units (CFU) (Staphylococcus aureus [4]; 0 hr incubation, MIC) | Colony-forming Units (CFU) (Staphylococcus aureus [4]; 6 hr incubation, 2 × MIC) | Colony-forming Units (CFU) (Staphylococcus aureus [4]; 6 hr incubation, MIC) | Colony-forming Units (CFU) (Staphylococcus aureus [4]; 12 hr incubation, 2 × MIC) | Colony-forming Units (CFU) (Staphylococcus aureus [4]; 12 hr incubation, MIC) | Colony-forming Units (CFU) (Staphylococcus aureus [4]; 24 hr incubation, 2 × MIC) | Colony-forming Units (CFU) (Staphylococcus aureus [4]; 24 hr incubation, MIC) | killing of S. aureus (Staphylococcus aureus [4]; in 6 h) | other results
1 | COC1=CC(=O)C(SC)=C(SC)C1=O [blue 1,4 benzoquinone, 5-methoxy-2,3-bis(methylthio)cyclohexa-2,5-diene-1,4-dione] | clear inhibition; also recorded: inhibitory activity | 6 µg/mL (≈ 26.1 µM) | R | S | S | S | S | S | S | S | 1 µg/mL (≈ 4.34 µM) | 339 Colony-forming units per plate | 352 Colony-forming units per plate | 21 Colony-forming units per plate | 45 Colony-forming units per plate | 2 Colony-forming units per plate | 1 Colony-forming units per plate | 0 Colony-forming units per plate | 2 Colony-forming units per plate | 90% | killing of S. aureus (Staphylococcus aureus [4]; in 24 h): 99.9%; activity against gram negative E. coli (E. coli): neither compound was found to have appreciable activity; also recorded: Neither 1,4 benzoquinone showed activity; activity against the pathogenic fungus Candida. albicans (Candida. albicans): Neither 1,4 benzoquinone showed activity; cytotoxic effect on A549 cells (LDH release) [5]: remained relatively unaffected; cytotoxic effect on Jurkat cells (LDH release) (Jurkat (T cell leukemia)): comparably potent in inducing death; cytotoxic effect on SH-SY5Y cells (LDH release) [6]: comparably potent in inducing death; cytotoxic effect on TE 671 cells (LDH release) [7]: comparably potent in inducing death; hemolytic activity (fresh human erythrocytes): no erythrocyte hemolysis was observed; also recorded: Neither 1,4 benzoquinone showed hemolytic activity; intracellular reactive oxygen species (oxidation of DCFH-DA) (TE671 muscle cells): Intracellular oxidation of the DCFH-DA in cells treated with the 1,4 benzoquinones was observed; apoptosis (Annexin V staining, loss of cell membrane asymmetry) (Jurkat cells): triggers apoptosis
2 | COC1=CC(=O)C(SC)=C(OC)C1=O [red 1,4 benzoquinone, 3,5-dimethoxy-2-(methylthio)cyclohexa-2,5-diene-1,4-dione] | clear inhibition; also recorded: inhibitory activity | 4 µg/mL (≈ 18.7 µM) | R | S | S | S | S | S | S | S | 1 µg/mL (≈ 4.67 µM) | 311 Colony-forming units per plate | 298 Colony-forming units per plate | 9 Colony-forming units per plate | 22 Colony-forming units per plate | 0 Colony-forming units per plate | 3 Colony-forming units per plate | 0 Colony-forming units per plate | 0 Colony-forming units per plate | 90% | killing of S. aureus (Staphylococcus aureus [4]; in 24 h): 99.9%; activity against gram negative E. coli (E. coli): neither compound was found to have appreciable activity; also recorded: Neither 1,4 benzoquinone showed activity; activity against the pathogenic fungus Candida. albicans (Candida. albicans): Neither 1,4 benzoquinone showed activity; cytotoxic effect on A549 cells (LDH release) [5]: remained relatively unaffected; cytotoxic effect on Jurkat cells (LDH release) (Jurkat (T cell leukemia)): comparably potent in inducing death; cytotoxic effect on SH-SY5Y cells (LDH release) [6]: comparably potent in inducing death; cytotoxic effect on TE 671 cells (LDH release) [7]: comparably potent in inducing death; hemolytic activity (fresh human erythrocytes): no erythrocyte hemolysis was observed; also recorded: Neither 1,4 benzoquinone showed hemolytic activity; intracellular reactive oxygen species (oxidation of DCFH-DA) (TE671 muscle cells): Intracellular oxidation of the DCFH-DA in cells treated with the 1,4 benzoquinones was observed; apoptosis (Annexin V staining, loss of cell membrane asymmetry) (Jurkat cells): triggers apoptosis
